In patent US11648254B2 (Kumquat Biosciences Inc., priority 2021, dated 2023):
Like-named read-outs stand apart in the source and are kept apart here.

Legend:
[1] = system: MIA PaCa-2 cells (K-Ras G12C); assay: Ras-SOS cellular growth inhibition assay (CellTiter-Glo, 3D); assay type: cell-based; details: Homo sapiens
Procedure, shortened: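 MIA PaCa-2 cells grown in ultra-low-attachment plates (3D) in DMEM/Ham's F12 with 10% FCS and 2.5% horse serum, treated the day after seeding with a 9-point 3-fold compound series for about 5 days. Viability by CellTiter-Glo luminescence; IC50 from four-parameter fit.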

[2] = system: NCI-H1975 cells (EGFR T790M L858R); assay: EGFR-SOS cellular inhibition assay (CellTiter-Glo, 3D); assay type: cell-based; details: Homo sapiens
SOS1 = SOS1 (Homo sapiens (Human), UniProt Q07889); assay: Ras-SOS interaction assay (HTRF); assay type: biochemical
[3] = MIA PaCa-2, 120 h, MIA PaCa-2, 3D proliferation, about 5 days, read-out: Bio-Cell-Prolif-3D (MiaPaca2 IC50)
[4] = MIA PaCa-2, MIA PaCa-2, read-out: IC50 in inhibiting MIA PaCa-2 cell growth
[5] = 120 h, NCI-H1975, 3D proliferation, about 5 days, read-out: Bio-Cell-Prolif-3D (H1975 IC50)
[6] = NCI-H1975, EGFR T790M L858R, read-out: IC50 in inhibiting growth of NCI-H1975 cell line
[7] = K-RasG13D utilized, read-out: IC50 inhibition of SOS
[8] = K-RasG13D, read-out: IC50 value against SOS1

Sequence of SOS1 (Q07889 564-1049): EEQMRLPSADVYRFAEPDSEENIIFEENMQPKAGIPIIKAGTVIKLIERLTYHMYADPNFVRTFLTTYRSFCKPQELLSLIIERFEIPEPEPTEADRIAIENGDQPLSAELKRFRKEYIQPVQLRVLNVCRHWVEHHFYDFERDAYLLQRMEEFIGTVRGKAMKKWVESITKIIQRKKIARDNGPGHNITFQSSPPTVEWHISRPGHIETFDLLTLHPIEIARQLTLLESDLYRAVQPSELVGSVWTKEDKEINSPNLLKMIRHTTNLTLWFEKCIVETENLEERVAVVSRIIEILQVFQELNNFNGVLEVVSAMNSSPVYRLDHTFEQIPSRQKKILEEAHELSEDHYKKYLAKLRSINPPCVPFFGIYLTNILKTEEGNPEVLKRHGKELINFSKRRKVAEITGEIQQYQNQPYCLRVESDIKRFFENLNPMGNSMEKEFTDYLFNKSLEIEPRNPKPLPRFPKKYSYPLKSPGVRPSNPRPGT

| SMILES | IC50 [1, 3] [nM] | IC50 [1, 4] [nM] | IC50 [2, 5] [nM] | IC50 [2, 6] [nM] | IC50 (SOS1; [7]) [nM] | IC50 (SOS1; [8]) [nM] |
| --- | --- | --- | --- | --- | --- | --- |
| Cc1nc(N[C@H](C)c2cccc(C(F)F)c2F)c2cc(C3(C#N)CC3)c(O[C@@H]3CCN(C)C3)nc2n1 [Compound 226, 1-(4-(((R)-1-(3-(difluoromethyl)-2-fluorophenyl)ethyl)amino)-2-methyl-7-(((R)-1-methylpyrrolidin-3-yl)oxy)pyrido[2,3-d]pyrimidin-6-yl)cyclopropane-1-carbonitrile] | 1000 to 10000 | – | ≤ 1000 | < 500 | < 100 | – |
| C[C@@H](Nc1ncnc2nc(OC3COC3)c(N3CCS(=O)(=O)CC3)cc12)c1cccc(C(F)F)c1F [Compound 231, (R)-4-(4-((1-(3-(difluoromethyl)-2-fluorophenyl)ethyl)amino)-7-(oxetan-3-yloxy)pyrido[2,3-d]pyrimidin-6-yl)thiomorpholine 1,1-dioxide] | ≤ 1000 | – | 1000 to 10000 | – | < 100 | < 50 |
| Cc1nc(N[C@H](C)c2cccc(C(F)F)c2F)c2cc(C3(C#N)CC3)c(OC3CCN(C)CC3)nc2n1 [Compound 232, (R)-1-(4-((1-(3-(difluoromethyl)-2-fluorophenyl)ethyl)amino)-2-methyl-7-((1-methylpiperidin-4-yl)oxy)pyrido [2,3-d]pyrimidin-6-yl)cyclopropane-1-carbonitrile] | ≤ 1000 | < 500 | ≤ 1000 | < 500 | < 100 | < 50 |
| Cc1nc(N[C@H](C)c2cccc(C(F)F)c2F)c2cc(C3(C#N)CC3)c(O[C@H]3CCN(C)C3)nc2n1 [Compound 233, 1-(4-(((R)-1-(3-(difluoromethyl)-2-fluorophenyl)ethyl)amino)-2-methyl-7-(((S)-1-methylpyrrolidin-3-yl)oxy)pyrido [2,3-d]pyrimidin-6-yl)cyclopropane-1-carbonitrile] | ≤ 1000 | < 500 | ≤ 1000 | < 500 | < 100 | < 50 |
| Cc1nc(N[C@H](C)c2cccc(C(F)F)c2F)c2cc(C3(C#N)CC3)c(OC[C@H]3CCCN3C)nc2n1 [Compound 235, 1-(4-(((R)-1-(3-(difluoromethyl)-2-fluorophenyl)ethyl)amino)-2-methyl-7-(((R)-1-methylpyrrolidin-2-yl)methoxy)pyrido [2,3-d]pyrimidin-6-yl)cyclopropane-1-carbonitrile] | ≤ 1000 | – | ≤ 1000 | < 500 | < 100 | < 50 |
| COc1nc2nc(C)nc(N[C@H](C)c3cccc(C(F)(F)CCC4CN(C(C)C)C4)c3F)c2cc1C1CCS(=O)(=O)CC1 [Compound 238, (R)-4-(4-((1-(3-(1,1-difluoro-3-(1-isopropylazetidin-3-yl)propyl)-2-fluorophenyl)ethyl)amino)-7-methoxy-2-methylpyrido[2,3-d]pyrimidin-6-yl)tetrahydro-2H-thiopyran 1,1-dioxide] | ≤ 1000 | < 500 | ≤ 1000 | < 500 | < 100 | < 50 |

The remaining lines, values ahead:

| IC50 [1, 3] [nM] | IC50 [1, 4] [nM] | IC50 [2, 5] [nM] | IC50 [2, 6] [nM] | IC50 (SOS1; [7]) [nM] | IC50 (SOS1; [8]) [nM] | SMILES |
| --- | --- | --- | --- | --- | --- | --- |
| ≤ 1000 | < 500 | ≤ 1000 | < 500 | < 100 | < 50 | COc1nc2nc(C)nc(N[C@H](C)c3cccc(C(C)(F)F)c3F)c2cc1N1CCS(=O)(=O)CC1 [Compound 215, (R)-4-(4-((1-(3-(1,1-difluoroethyl)-2-fluorophenyl)ethyl)amino)-7-methoxy-2-methylpyrido[2,3-d]pyrimidin-6-yl)thiomorpholine 1,1-dioxide] |
| ≤ 1000 | – | ≤ 1000 | < 500 | – | < 50 | COc1nc2nc(CCN3CCC3)nc(N[C@H](C)c3cccc(C(F)(F)F)c3F)c2cc1C1(C#N)CC1 [Compound 217, (R)-1-(2-(2-(azetidin-1-yl)ethyl)-4-((1-(2-fluoro-3-(trifluoromethyl)phenyl)ethyl)amino)-7-methoxypyrido[2,3-d]pyrimidin-6-yl)cyclopropane-1-carbonitrile] |
| ≤ 1000 | < 500 | ≤ 1000 | < 500 | < 100 | < 50 | CC(C)N1CCC(c2cc3c(N[C@H](C)c4cccc(C(F)(F)C5CCN(C(C)C)CC5)c4F)ncnc3nc2Cl)CC1 [Compound 218, (R)-7-chloro-N-(1-(3-(difluoro(1-isopropylpiperidin-4-yl)methyl)-2-fluorophenyl)ethyl)-6-(1-isopropylpiperidin-4-yl)pyrido[2,3-d]pyrimidin-4-amine] |
| ≤ 1000 | < 500 | ≤ 1000 | < 500 | < 100 | < 50 | COc1nc2ncnc(N[C@H](C)c3cccc(C(F)(F)C4CCN(C(C)C)CC4)c3F)c2cc1C1CCN(C(C)C)CC1 [Compound 221, (R)-N-(1-(3-(difluoro(1-isopropylpiperidin-4-yl)methyl)-2-fluorophenyl)ethyl)-6-(1-isopropylpiperidin-4-yl)-7-methoxypyrido[2,3-d] pyrimidin-4-amine] |
| ≤ 1000 | < 500 | ≤ 1000 | < 500 | < 100 | < 50 | Cc1nc(N[C@H](C)c2cccc(C(F)(F)C3CCN(C(C)C)CC3)c2F)c2cc(C3CCN(C(C)C)CC3)c(Cl)nc2n1 [Compound 222, (R)-7-chloro-N-(1-(3-(difluoro(1-isopropylpiperidin-4-yl)methyl)-2-fluorophenyl)ethyl)-6-(1-isopropylpiperidin-4-yl)-2-methylpyrido[2,3-d]pyrimidin-4-amine] |
| ≤ 1000 | < 500 | ≤ 1000 | < 500 | < 100 | < 50 | Cc1nc(N[C@H](C)c2cccc(C(F)(F)C3CCN(C(C)C)CC3)c2F)c2cc(N3CCN(C(C)C)CC3)c(Cl)nc2n1 [Compound 223, (R)-7-chloro-N-(1-(3-(difluoro(1-isopropylpiperidin-4-yl)methyl)-2-fluorophenyl)ethyl)-6-(4-isopropylpiperazin-1-yl)-2-methylpyrido[2,3-d]pyrimidin-4-amine] |
| ≤ 1000 | < 500 | ≤ 1000 | < 500 | < 100 | < 50 | CC(C)N1CCC(C(F)(F)c2cccc([C@@H](C)Nc3ncnc4nc(Cl)c(N5CCN(C(C)C)CC5)cc34)c2F)CC1 [Compound 224, (R)-7-chloro-N-(1-(3-(difluoro(1-isopropylpiperidin-4-yl)methyl)-2-fluorophenyl)ethyl)-6-(4-isopropylpiperazin-1-yl)pyrido[2,3-d]pyrimidin-4-amine] |
| ≤ 1000 | – | ≤ 1000 | – | < 100 | < 50 | C[C@@H](Nc1ncnc2nc(OC3COC3)c(C3CCS(=O)(=O)CC3)cc12)c1cccc(C(F)F)c1F [Compound 227, (R)-4-(4-((1-(3-(difluoromethyl)-2-fluorophenyl)ethyl)amino)-7-(oxetan-3-yloxy)pyrido[2,3-d]pyrimidin-6-yl)tetrahydro-2H-thiopyran 1,1-dioxide] |
| ≤ 1000 | – | ≤ 1000 | – | < 100 | < 50 | Cc1nc(N[C@H](C)c2cccc(C(F)F)c2F)c2cc(C3CCS(=O)(=O)CC3)c(OC3COC3)nc2n1 [Compound 229, (R)-4-(4-((1-(3-(difluoromethyl)-2-fluorophenyl)ethyl)amino)-2-methyl-7-(oxetan-3-yloxy)pyrido[2,3-d]pyrimidin-6-yl)tetrahydro-2H-thiopyran 1,1-dioxide] |
